We go through 28 compounds from patent US9981916B2 (Genentech, Inc., priority 2013, dated 2018).

SMILES strings stand for the structures.

The assay concerns the target T1, RORc ligand binding domain (Homo sapiens, UniProt P51449).
T1 construct: host or cells: E. coli
T1 sequence (P51449 269-508 limits assumed): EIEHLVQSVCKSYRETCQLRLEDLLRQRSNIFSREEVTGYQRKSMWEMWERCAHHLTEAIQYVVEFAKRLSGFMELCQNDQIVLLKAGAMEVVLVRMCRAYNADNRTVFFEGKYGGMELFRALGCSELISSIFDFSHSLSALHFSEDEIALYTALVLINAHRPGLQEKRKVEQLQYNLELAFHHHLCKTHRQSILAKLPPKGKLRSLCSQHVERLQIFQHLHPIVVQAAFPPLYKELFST
Kind of assay: In vitro RORc ligand binding assay (25-[3H]hydroxycholesterol displacement, filter binding). The note with it: 6 nM 25-[3H]hydroxycholesterol, 0.6 ug/mL RORc receptor, 3 h at 25° C. An outline of the steps:
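Compounds in 5% DMSO, either dose-response or screened at 1 and 10 uM, competed with 6 nM 25-[3H]hydroxycholesterol for 0.6 ug/mL RORc over 3 h at 25° C (HEPES pH 7.4, NaCl, MgCl2, DTT, BSA buffer). Bound tracer was filter-harvested and counted; nonspecific binding came from 1 uM 25-hydroxycholesterol.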
What is called IC50 is the concentration that gives 50% inhibition. Low values mean greater potency, high ones weaker potency. In the case of `C[C@H]1CN(C[C@@]23CC[C@@H](c4cc(-c5c(F)cccc5F)nnc42)C3(C)C)C(=O)O1` [Example 315, (S)-3-(((5R,8S)-3-(2,6-difluorophenyl)-9,9-dimethyl-5,6,7,8-tetrahydro-5,8-methanocinnolin-8-yl)methyl)-5-methyloxazolidin-2-one], the IC50 came out at 350 nM. Under `CC1(C)[C@H]2CC[C@]1(CN(CCC#N)C(=O)CO)c1nnc(-c3c(F)cccc3F)cc12` [Example 316, N-(2-cyanoethyl)-N-(((5R,8S)-3-(2,6-difluorophenyl)-9,9-dimethyl-5,6,7,8-tetrahydro-5,8-methanocinnolin-8-yl)methyl)-2-hydroxyacetamide] stands 233 nM; under `CC1(C)[C@H]2CC[C@]1(CNC1COC1)c1nnc(-c3c(F)cccc3F)cc12` [Example 317, N-(((5R,8S)-3-(2,6-difluorophenyl)-9,9-dimethyl-5,6,7,8-tetrahydro-5,8-methanocinnolin-8-yl)methyl)oxetan-3-amine], 1920 nM.

Compound `CCN(C[C@@]12CC[C@@H](c3cc(-c4c(F)cccc4F)nnc31)C2(C)C)C(=O)CS(C)(=O)=O` [Example 318, N-(((5R,8S)-3-(2,6-difluorophenyl)-9,9-dimethyl-5,6,7,8-tetrahydro-5,8-methanocinnolin-8-yl)methyl)-N-ethyl-2-(methylsulfonyl)acetamide] had an IC50 of 33 nM. With `CN([C@@]12CC[C@@H](c3cc(-c4c(F)cccc4F)nnc31)C2(C)C)S(=O)(=O)C(F)(F)F` [Example 319, N-((5R,8R)-3-(2,6-difluorophenyl)-9,9-dimethyl-5,6,7,8-tetrahydro-5,8-methanocinnolin-8-yl)-1,1,1-trifluoro-N-methylmethanesulfonamide] the figure was 52 nM. Under `CN(C)C(=O)N[C@@]12CC[C@@H](c3cc(-c4c(F)cccc4F)nnc31)C2(C)C` [Example 320, 3-((5R,8R)-3-(2,6-difluorophenyl)-9,9-dimethyl-5,6,7,8-tetrahydro-5,8-methanocinnolin-8-yl)-1,1-dimethylurea] stands 1500 nM; under `CC(=O)NC(C)(C)[C@@]12CC[C@@H](c3cc(-c4c(F)cccc4F)nnc31)C2(C)C` [Example 321, N-(2-((5R,8S)-3-(2,6-difluorophenyl)-9,9-dimethyl-5,6,7,8-tetrahydro-5,8-methanocinnolin-8-yl)propan-2-yl)acetamide], 79 nM.

Take `CC1(C)[C@H]2CC[C@]1(N(CC(F)F)C(=O)CO)c1nnc(-c3c(F)cccc3F)cc12` [Example 322, N-(2,2-difluoroethyl)-N-((5R,8R)-3-(2,6-difluorophenyl)-9,9-dimethyl-5,6,7,8-tetrahydro-5,8-methanocinnolin-8-yl)-2-hydroxyacetamide]: the IC50 came out at 1460 nM. With `CCN(C[C@@]12CC[C@@H](c3cc(-c4c(F)cccc4F)nnc31)C2(C)C)c1cncc(=O)[nH]1` [Example 323, 6-((((5R,8S)-3-(2,6-difluorophenyl)-9,9-dimethyl-5,6,7,8-tetrahydro-5,8-methanocinnolin-8-yl)methyl)(ethyl)amino) pyrazin-2(1H)-one] the figure was 12 nM; with `C[C@H](O)C(=O)N(CCC#N)C[C@@]12CC[C@@H](c3cc(-c4c(F)cccc4F)nnc31)C2(C)C` [Example 324, (S)-N-(2-cyanoethyl)-N-(((5R,8S)-3-(2,6-difluorophenyl)-9,9-dimethyl-5,6,7,8-tetrahydro-5,8-methanocinnolin-8-yl)methyl)-2-hydroxypropanamide], 732 nM; with `CN(C)C(=O)N(C)[C@@]12CC[C@@H](c3cc(-c4c(F)cccc4F)nnc31)C2(C)C` [Example 325, 1-((5R,8R)-3-(2,6-difluorophenyl)-9,9-dimethyl-5,6,7,8-tetrahydro-5,8-methanocinnolin-8-yl)-1,3,3-trimethylurea], 944 nM. With `CC1(C)[C@H]2CC[C@]1(CN1CC(C#N)C1)c1nnc(-c3c(F)cccc3F)cc12` [Example 326, 1-(((5R,8S)-3-(2,6-difluorophenyl)-9,9-dimethyl-5,6,7,8-tetrahydro-5,8-methanocinnolin-8-yl)methyl)azetidine-3-carbonitrile] the figure was 1920 nM; with `CCOC(=O)c1nnc([C@@]23CC[C@@H](c4cc(-c5c(F)cccc5F)nnc42)C3(C)C)o1` [Example 327, ethyl 5-((5R,8R)-3-(2,6-difluorophenyl)-9,9-dimethyl-5,6,7,8-tetrahydro-5,8-methanocinnolin-8-yl)-1,3,4-oxadiazole-2-carboxylate], 1390 nM; with `CC1(C)[C@@H]2CC[C@@]1(CNCC(F)F)c1nnc(-c3c(F)cccc3F)cc12` [Example 328, N-(((5S,8R)-3-(2,6-difluorophenyl)-9,9-dimethyl-5,6,7,8-tetrahydro-5,8-methanocinnolin-8-yl)methyl)-2,2-difluoroethanamine], 74 nM.

`CC1(C)[C@H]2CC[C@]1(COc1cnccn1)c1nnc(-c3c(F)cccc3F)cc12` [Example 329, (5R,8R)-3-(2,6-difluorophenyl)-9,9-dimethyl-8-((pyrazin-2-yloxy)methyl)-5,6,7,8-tetrahydro-5,8-methanocinnoline] had an IC50 of 271 nM.

The compound `CC1(C)[C@H]2CC[C@]1(COc1cncc(=O)[nH]1)c1nnc(-c3c(F)cccc3F)cc12` [Example 330, 6-(((5R,8R)-3-(2,6-difluorophenyl)-9,9-dimethyl-5,6,7,8-tetrahydro-5,8-methanocinnolin-8-yl)methoxy)pyrazin-2(1H)-one] returned an IC50 of 1980 nM.

`CCNC[C@@]12CC[C@@H](c3cc(-c4c(F)cccc4F)nnc31)C2(C)C` [Example 331, N-(((5R,8S)-3-(2,6-difluorophenyl)-9,9-dimethyl-5,6,7,8-tetrahydro-5,8-methanocinnolin-8-yl)methyl)ethanamine] had a 50% inhibitory concentration (IC50) of 877 nM. Under `CC1(C)[C@@H]2CC[C@@]1(C(=O)N1CC(F)(F)C1)c1nnc(-c3ccccc3F)cc12` [Example 332, (3,3-difluoroazetidin-1-yl)((5S,8S)-3-(2-fluorophenyl)-9,9-dimethyl-5,6,7,8-tetrahydro-5,8-methanocinnolin-8-yl)methanone] stands 1400 nM. In turn, `CC1(C)[C@@H]2CC[C@@]1(C(=O)NC1CCC1)c1nnc(-c3ccccc3F)cc12` [Example 333, (5S,8S)-N-cyclobutyl-3-(2-fluorophenyl)-9,9-dimethyl-5,6,7,8-tetrahydro-5,8-methanocinnoline-8-carboxamide] registered an IC50 of 1500 nM. `CNC(=O)[C@]12CC[C@H](c3cc(-c4ccccc4F)nnc31)C2(C)C` [Example 334, (5S,8S)-3-(2-fluorophenyl)-N,9,9-trimethyl-5,6,7,8-tetrahydro-5,8-methanocinnoline-8-carboxamide]: the 50% inhibitory concentration (IC50) worked out at 2100 nM. With `Cc1c[nH]nc1C1CN(C(=O)[C@]23CC[C@H](c4cc(-c5ccccc5F)nnc42)C3(C)C)C1` [Example 335, ((5S,8S)-3-(2-fluorophenyl)-9,9-dimethyl-5,6,7,8-tetrahydro-5,8-methanocinnolin-8-yl)(3-(4-methyl-1H-pyrazol-3-yl)azetidin-1-yl)methanone] the figure was 2800 nM. Under `Cc1nnc([C@@]23CC[C@@H](c4cc(Oc5c(F)cccc5F)nnc42)C3(C)C)o1` [Example 336, 2-((5R,8R)-3-(2,6-difluorophenoxy)-9,9-dimethyl-5,6,7,8-tetrahydro-5,8-methanocinnolin-8-yl)-5-methyl-1,3,4-oxadiazole] stands 49 nM; under `CC1(C)[C@H]2CC[C@]1(C(=O)N1CCC1)c1nnc(Oc3c(F)cccc3F)cc12` [Example 337, azetidin-1-yl((5R,8R)-3-(2,6-difluorophenoxy)-9,9-dimethyl-5,6,7,8-tetrahydro-5,8-methanocinnolin-8-yl)methanone], 540 nM; under `CC1(C)[C@H]2CC[C@]1(COCc1ccccc1)c1nnc(Oc3c(F)cccc3F)cc12` [Example 338, (5R,8R)-8-((benzyloxy)methyl)-3-(2,6-difluorophenoxy)-9,9-dimethyl-5,6,7,8-tetrahydro-5,8-methanocinnoline], 66 nM.

`CC(=O)OC[C@@]12CC[C@@H](c3cc(Oc4c(F)cccc4F)nnc31)C2(C)C` [Example 339, ((5R,8R)-3-(2,6-difluorophenoxy)-9,9-dimethyl-5,6,7,8-tetrahydro-5,8-methanocinnolin-8-yl)methyl acetate] registered an IC50 of 100 nM. With `CCN(C[C@]12CC[C@H](c3cc(-c4c(F)cccc4F)nnc31)C2(C)C)C(=O)CCC(N)=O` [Example 342, N1-(((5S,8R)-3-(2,6-difluorophenyl)-9,9-dimethyl-5,6,7,8-tetrahydro-5,8-methanocinnolin-8-yl)methyl)-N1-ethylsuccinamide] the figure was 28 nM. Under `CCN(C[C@]12CC[C@H](c3cc(-c4c(F)cccc4F)nnc31)C2(C)C)C(=O)CCNC(N)=O` [Example 343, N-(((5S,8R)-3-(2,6-difluorophenyl)-9,9-dimethyl-5,6,7,8-tetrahydro-5,8-methanocinnolin-8-yl)methyl)-N-ethyl-3-ureidopropanamide] stands 32 nM; under `CCN(C[C@]12CC[C@H](c3cc(-c4c(F)cccc4F)nnc31)C2(C)C)C(=O)CCC(=O)N(C)C` [Example 344, N1-(((5S,8R)-3-(2,6-difluorophenyl)-9,9-dimethyl-5,6,7,8-tetrahydro-5,8-methanocinnolin-8-yl)methyl)-N1-ethyl-N4,N4-dimethylsuccinamide], 31 nM.
